Our source for the IC50 values is PubChem BioAssay AID588709 (The Scripps Research Institute Molecular Screening Center, 2011).

Values joined by “and” are separate entries in the source; they are usually repeats but may differ in a detail not shown here. Equal values may be shown once. Active and inactive are the calls of the source. No rule for the calls is given here. A value given as a limit tells only on which side of the number the result lay.

In the assay the test system is HEK293 cytotoxicity, ATP luminescence. Put plainly: cytotoxicity in HEK cells, dose response, counter-screen for IDE inhibitor project, cell-based, luminescence (AID 588709).
As for `Cc1ccc(-c2nc(C(=O)Nc3cccc(C(F)(F)F)c3)cs2)cc1`, the IC50 was 36.1 µM (inactive).

On to `O=C(Nc1cccc(C(F)(F)F)c1)c1csc(-c2cccc(C(F)(F)F)c2)n1`, for which the IC50 is 55.9 µM (inactive).

For `COc1cccc(-c2nnc(SCc3nc4ccccc4[nH]3)n2Cc2ccco2)c1`, the IC50 is 36.5 µM (inactive).

Regarding `Cn1c(=O)c(C(=O)CN2CCCc3ccccc32)c(N)n(Cc2ccccc2)c1=O`, the IC50 was 30.1 µM (inactive).

As for `O=C(Nc1ccc2oc(-c3cccnc3)nc2c1)c1ccc2c(c1)OCCO2`, the IC50 is > 71.5 µM (inactive).

Turning to `Cn1c(SCc2nc3ccccc3[nH]2)nnc1-c1cccc(Cl)c1`, the IC50 was > 71.5 µM (inactive).

`O=C(CSc1nnc(-c2cccc(Cl)c2)n1Cc1ccco1)Nc1ccc2cn[nH]c2c1`: the IC50 is > 71.5 µM (inactive).

Regarding `O=C(CSc1nnc(-c2cccc(Cl)c2)n1Cc1ccco1)Nc1ccc2c(c1)OCCO2`, the IC50 was 29.7 µM (inactive).

As to `COc1cc(/C=C2\SC(=S)N(NC(C)=O)C2=O)ccc1OC(=O)c1ccco1`, the IC50 is > 71.5 µM (inactive).

In the case of `O=c1c2ccccc2sn1-c1cc(S(=O)(=O)N2CCOCC2)ccc1N1CCOCC1`, the IC50 was 9.61 µM.

On to `Cc1cccc(-c2nnc(SCc3nc4ccccc4[nH]3)n2Cc2ccco2)c1`, for which the IC50 is 34.8 µM (inactive) and 32.7 µM (inactive).

On to `Cc1nc(-c2cccnc2)sc1C(=O)Nc1cccc(C(F)(F)F)c1`, for which the IC50 was 15.8 µM (inactive).

Consider `O=C(Nc1cccc(C(F)(F)F)c1)c1csc(-c2ccncc2)n1`, for which the IC50 was 24.1 µM (inactive).

Regarding `Clc1cccc(-c2nnc(SCc3nc4ccccc4[nH]3)n2-c2ccccc2)c1`, the IC50 is 31.2 µM (inactive).

Consider `O=C(C1CC1)N1CCN(c2ccnc3cc(Cl)ccc23)CC1`, for which the IC50 is > 71.5 µM (inactive).

Take `Cc1ccc(C)c(N2C(=N)S/C(=C\c3ccc(-c4ccccc4C(=O)O)o3)C2=O)c1`: the IC50 is > 71.5 µM (inactive).

With `COc1ccc(NC(=O)CSc2nnc(CN3CCOCC3)n2C)cc1Cl`, the IC50 was > 71.5 µM (inactive).

For `O=C(Nc1cc(C(F)(F)F)cc(C(F)(F)F)c1)c1csc(-c2ccncc2)n1`, the IC50 was > 71.5 µM (inactive).

In the case of `Cc1ccc(NC(=O)CSc2nnc(-c3cccc(Cl)c3)n2Cc2ccco2)c(C)c1`, the IC50 is 35.6 µM (inactive).

Regarding `O=C(Nc1cccc(C(F)(F)F)c1)c1csc(-c2ccccc2)n1`, the IC50 is 33.3 µM (inactive).

Take `CCN(CC)c1ccc(/C=C2\C(=N)N3N=C(CC(=O)N4CCOCC4)SC3=NC2=O)cc1`: the IC50 was > 71.5 µM (inactive).

Regarding `Clc1cccc(-c2nnc(SCc3nc4ccccc4[nH]3)n2Cc2ccco2)c1`, the IC50 was 23.3 µM (inactive).

Turning to `Nc1c(C(=O)Nc2nccs2)sc2nc(-c3cccs3)cc(C(F)(F)F)c12`, the IC50 is 9.06 µM.

As for `O=C(CSc1nnc(-c2cccc(Cl)c2)n1Cc1ccco1)Nc1ccccc1C(F)(F)F`, the IC50 is 30.9 µM (inactive).

For `CC(Sc1nnc(-c2cccnc2)n1-c1ccccc1F)C(=O)N1CCCc2ccccc21` (stereo unspecified), the IC50 is 32.1 µM (inactive).

`O=C(Nc1cccc(C(F)(F)F)c1)c1csc(Cc2cccc(C(F)(F)F)c2)n1`: the IC50 is 29.5 µM (inactive).

On to `COc1ccc(C(=O)N2CCN(C(=O)C3COc4ccccc4O3)CC2)cc1OC` (stereo unspecified), for which the IC50 is > 71.5 µM (inactive).

As for `Cc1c(CCC(=O)NCCCn2ccnc2)c(=O)oc2cc3oc4c(c3cc12)CCCC4`, the IC50 is 21.4 µM (inactive).

Turning to `CCOc1ccc2[nH]c3c(N4CCN(C(=O)c5ccco5)CC4)ncnc3c2c1`, the IC50 was 21.1 µM (inactive).

For the molecule `COc1ccc(-c2nc(C(=O)Nc3cccc(C(F)(F)F)c3)cs2)cc1`, the IC50 is 67.8 µM (inactive).

In the case of `O=C(CSc1nnc(-c2cccc(Cl)c2)n1Cc1ccco1)c1ccc2ccccc2c1`, the IC50 is 30.7 µM (inactive).
